Where no end group is shown, it is not given here.
Assays:
GABAA-receptor complex = test: pharmacological profiling on convulsive and comatose models; design: species or system mice; settings: mouse, in vivo
Source text: Particularly, the evaluation of the GABA-effecting component in the mechanism of action of the peptidic composition “Deltaran” based on FDSIP has been performed using the “pharmacological profiling” method in animals (mice). […] Also evidence has been found for a modulation of the barbiturate binding site of the GABA-benzodiazepine-ionophore-receptor complex by Deltaran and DSIP and data have been obtained concerning regulatory effect on chloride ionophore. The regulatory influences are probably realized via the peptide fragment of the GABA-benzodiazepine-ionophore-receptor complex (15).

[1] = test system: lipids of various biological membranes (synaptosome, mitochondrial, erythrocyte and other); test: peroxidation of lipids of biological membranes; format: biochemical; settings: by modulation of the activity of antioxidant enzymes
Source text: The direct effect of the peptide on different cell membrane types was shown which may provide an additional normalizing cell functions effect. Particularly FDSIP may provide a stabilizing effect to the mitochondrial cell apparatus that also is capable of reducing cell damage by normalizing the cell respiration processes, which has been shown by us in experiments.

[2] = test system: mitochondrial respiratory chain; test: mitochondrial respiratory chain and oxidative phosphorylation on rat brain preparations; format: biochemical
Source text: DSIP and its related peptides play a unique role in the maintenance of the structural-metabolic homeostasis not only on the level of different organs and tissues but also on the sub-cellular level of the organism. […] Such a decrease of rigidity of biological membranes enables the normalization of membrane functions, that have been disturbed by manifestations of the metabolic syndrome, such as hypertonic disease, hyperinsulinemia, misbalance of the endocrinal system, aging, etc.

[3] = test system: antioxidant systems of the liver, the brain and the blood; settings: under normal and under stress conditions; cited from earlier work
[4] = test system: plasma membranes of human blood cells (erythrocytes and thrombocytes) and synaptosomal membranes (mice brain); settings: on the surface and internal non-polar region; cited from earlier work

WAGGDASGE [DSIP, endogenous nonapeptide, delta-sleep inducing peptide]
barbiturate binding site of the GABA-benzodiazepine-ionophore-receptor complex (GABAA-receptor complex): modulation | action on the peroxidation of lipids of various biological membranes [1]: inhibitory and preventive action | efficacy of the oxidative phosphorylation [2]: significant increase | capacity of the antioxidant systems of the liver, the brain and the blood [3]: credibly increases | mobility of structural membrane domains [4]: increased mobility

— patent publication US20090098096A1, “AGENT FOR CORRECTING STRESS-INDUCING NEURO-MEDIATOR, NEURO-ENDOCRINE AND METABOLIC DISTURBANCES AND METHOD FOR PREVENTING AND TREATING CONCOMITANT PATHOLOGICAL CONDITIONS” (priority 2005, published 2009)
